Assays:
Details in all cases: 2.5E−05M
α2C (h) = molecular target: T1, α2C (h) (Homo sapiens, UniProt P18825); assay: Abuse liability binding screen, α2C (h) (antagonist radioligand)
T1 sequence (P18825 1-462): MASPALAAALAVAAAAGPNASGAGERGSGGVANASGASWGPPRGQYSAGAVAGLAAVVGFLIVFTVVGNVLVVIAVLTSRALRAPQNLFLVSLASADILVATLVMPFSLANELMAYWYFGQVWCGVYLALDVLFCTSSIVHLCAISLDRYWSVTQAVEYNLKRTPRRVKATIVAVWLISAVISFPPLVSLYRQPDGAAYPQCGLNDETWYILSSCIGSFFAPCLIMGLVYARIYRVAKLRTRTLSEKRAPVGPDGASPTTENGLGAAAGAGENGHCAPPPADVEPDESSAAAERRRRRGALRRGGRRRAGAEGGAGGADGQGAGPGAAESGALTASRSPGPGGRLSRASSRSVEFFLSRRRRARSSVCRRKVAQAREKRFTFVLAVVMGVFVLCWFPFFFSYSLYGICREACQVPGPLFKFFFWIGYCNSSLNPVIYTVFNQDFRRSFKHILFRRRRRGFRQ
Procedure: (§1) […]. The abuse liability screen included 44 targets (receptors, transporters, on gated-channel systems) related to the dopamine, norepinephrine, serotonin, gamma-aminobutyric acid (GABA), acetylcholine, N-methyl-D-aspartate (NMDA) cannabinoid and opioid neurotransmitter systems as recommended in FDA Draft guidance on Assessment of Abuse Potential of Drugs, January 2010.
(§2) Compound binding was calculated as a % inhibition of the binding of a radioactively labeled ligand specific for each target.
(§3) Results showing an inhibition or stimulation higher than 50% are considered to represent significant effects of the test compounds.

5-HT2B (h) = 5-HT2B (h) (Homo sapiens, UniProt P41595); assay: Abuse liability binding screen, 5-HT2B (h) (agonist radioligand)
Procedure: as §1, §2, §3

M4 (h) = molecular target: T2, M4 (h) (Homo sapiens, UniProt P08173); assay: Abuse liability binding screen, M4 (h) (antagonist radioligand)
T2 sequence (P08173 1-479): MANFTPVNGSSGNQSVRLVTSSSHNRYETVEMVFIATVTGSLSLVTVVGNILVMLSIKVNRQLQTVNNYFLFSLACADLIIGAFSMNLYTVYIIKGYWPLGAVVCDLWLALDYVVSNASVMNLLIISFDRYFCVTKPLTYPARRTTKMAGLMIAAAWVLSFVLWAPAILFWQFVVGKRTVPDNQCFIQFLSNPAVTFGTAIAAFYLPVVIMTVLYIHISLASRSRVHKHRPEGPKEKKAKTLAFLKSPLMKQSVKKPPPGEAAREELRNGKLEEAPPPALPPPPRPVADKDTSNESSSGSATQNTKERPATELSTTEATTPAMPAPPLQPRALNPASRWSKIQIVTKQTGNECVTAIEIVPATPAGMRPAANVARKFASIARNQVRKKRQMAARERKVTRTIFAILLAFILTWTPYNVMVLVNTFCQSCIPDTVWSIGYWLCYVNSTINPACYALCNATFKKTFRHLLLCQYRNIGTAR
Procedure: as §1, §2, §3

Dopamine transporter (h) = Dopamine transporter (h) (Homo sapiens, UniProt Q01959); assay: Abuse liability binding screen, Dopamine transporter (h) (antagonist radioligand)
Procedure: as §1, §2, §3

5-HT2c (h) = molecular target: T3, 5-HT2c (h) (Homo sapiens, UniProt P28335); assay: Abuse liability binding screen, 5-HT2c (h) (agonist radioligand)
T3 sequence (P28335 33-458): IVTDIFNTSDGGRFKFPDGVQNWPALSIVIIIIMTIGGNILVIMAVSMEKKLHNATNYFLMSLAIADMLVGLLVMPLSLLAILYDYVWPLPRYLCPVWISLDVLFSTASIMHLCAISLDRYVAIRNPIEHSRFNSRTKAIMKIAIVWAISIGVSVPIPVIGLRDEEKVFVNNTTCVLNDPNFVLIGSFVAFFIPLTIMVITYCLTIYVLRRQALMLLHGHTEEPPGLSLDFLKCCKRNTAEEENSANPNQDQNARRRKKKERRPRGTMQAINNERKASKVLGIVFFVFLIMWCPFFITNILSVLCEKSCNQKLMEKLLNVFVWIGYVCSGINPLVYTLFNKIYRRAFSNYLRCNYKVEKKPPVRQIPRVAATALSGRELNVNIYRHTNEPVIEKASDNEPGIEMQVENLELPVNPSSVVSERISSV
Procedure: as §2

Na^+ channel (site 2) = assay: Abuse liability binding screen, Na+ channel (site 2) (antagonist radioligand)
Procedure: as §2

N neuronal α4β2 (h) = N neuronal α4β2 (h) (Homo sapiens, UniProt P17787+P43681); assay: Abuse liability binding screen, N neuronal α4β2 (h) (agonist radioligand)
Procedure: as §2

5-HT1A (h) = molecular target: T4, 5-HT1A (h) (Homo sapiens, UniProt P08908); assay: Abuse liability binding screen, 5-HT1A (h) (agonist radioligand)
T4 sequence (P08908 1-422): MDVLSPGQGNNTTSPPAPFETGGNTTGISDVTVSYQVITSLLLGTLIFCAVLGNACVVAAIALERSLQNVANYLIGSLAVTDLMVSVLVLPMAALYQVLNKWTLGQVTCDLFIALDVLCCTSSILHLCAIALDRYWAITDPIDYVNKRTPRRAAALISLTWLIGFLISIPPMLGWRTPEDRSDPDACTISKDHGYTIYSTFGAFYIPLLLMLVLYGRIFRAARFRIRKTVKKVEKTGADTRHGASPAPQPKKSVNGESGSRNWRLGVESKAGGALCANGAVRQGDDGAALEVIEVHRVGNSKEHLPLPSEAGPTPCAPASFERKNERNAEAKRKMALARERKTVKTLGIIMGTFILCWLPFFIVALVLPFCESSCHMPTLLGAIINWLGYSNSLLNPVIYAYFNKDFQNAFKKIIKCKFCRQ
Procedure: as §2

δ2 (DOP) (h) = δ2 (DOP) (h) (Homo sapiens, UniProt P41143); assay: Binding screen and IC50 determination, δ2 (DOP) (h) (agonist radioligand)
Procedure: as §2

BZD (central) = assay: Abuse liability binding screen, BZD (central) (agonist radioligand)
Procedure: as §2

N neuronal α7 (h) = N neuronal α7 (h) (Homo sapiens, UniProt P36544); assay: Abuse liability binding screen, N neuronal α7 (h) (antagonist radioligand)
Procedure: as §1, §2, §3

Sequence of 5-HT2B (h) (P41595 whole entry): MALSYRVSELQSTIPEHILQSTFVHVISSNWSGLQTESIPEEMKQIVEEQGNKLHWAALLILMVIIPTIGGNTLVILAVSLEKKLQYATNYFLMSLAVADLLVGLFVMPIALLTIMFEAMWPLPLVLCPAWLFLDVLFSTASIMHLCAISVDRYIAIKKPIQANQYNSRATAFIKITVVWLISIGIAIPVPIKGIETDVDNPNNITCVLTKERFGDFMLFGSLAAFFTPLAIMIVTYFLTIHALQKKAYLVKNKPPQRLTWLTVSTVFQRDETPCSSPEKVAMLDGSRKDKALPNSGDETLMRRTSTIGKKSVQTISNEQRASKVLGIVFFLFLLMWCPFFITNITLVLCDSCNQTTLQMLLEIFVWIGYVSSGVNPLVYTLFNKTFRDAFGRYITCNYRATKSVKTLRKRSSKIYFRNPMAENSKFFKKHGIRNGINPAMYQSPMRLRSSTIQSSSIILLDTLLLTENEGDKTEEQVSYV
Sequence of N neuronal α4β2 (h) (P43681 29-627 limits assumed): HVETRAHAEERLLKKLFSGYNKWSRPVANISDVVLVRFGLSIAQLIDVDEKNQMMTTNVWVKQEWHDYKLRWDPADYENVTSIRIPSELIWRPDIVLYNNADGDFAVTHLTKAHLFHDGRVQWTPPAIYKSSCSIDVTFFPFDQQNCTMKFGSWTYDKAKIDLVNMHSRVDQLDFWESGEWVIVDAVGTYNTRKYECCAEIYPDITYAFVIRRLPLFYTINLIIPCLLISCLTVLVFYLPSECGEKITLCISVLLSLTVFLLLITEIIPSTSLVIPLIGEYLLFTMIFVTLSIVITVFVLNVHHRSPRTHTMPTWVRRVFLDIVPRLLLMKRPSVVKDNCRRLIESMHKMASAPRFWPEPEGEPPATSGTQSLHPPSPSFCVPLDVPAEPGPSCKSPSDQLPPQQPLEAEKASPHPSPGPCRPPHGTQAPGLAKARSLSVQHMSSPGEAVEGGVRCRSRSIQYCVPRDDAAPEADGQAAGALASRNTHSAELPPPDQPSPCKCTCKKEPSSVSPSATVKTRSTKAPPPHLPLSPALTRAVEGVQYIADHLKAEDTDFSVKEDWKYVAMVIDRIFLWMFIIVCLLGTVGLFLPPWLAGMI
Sequence of N neuronal α4β2 (h) (P17787 26-502): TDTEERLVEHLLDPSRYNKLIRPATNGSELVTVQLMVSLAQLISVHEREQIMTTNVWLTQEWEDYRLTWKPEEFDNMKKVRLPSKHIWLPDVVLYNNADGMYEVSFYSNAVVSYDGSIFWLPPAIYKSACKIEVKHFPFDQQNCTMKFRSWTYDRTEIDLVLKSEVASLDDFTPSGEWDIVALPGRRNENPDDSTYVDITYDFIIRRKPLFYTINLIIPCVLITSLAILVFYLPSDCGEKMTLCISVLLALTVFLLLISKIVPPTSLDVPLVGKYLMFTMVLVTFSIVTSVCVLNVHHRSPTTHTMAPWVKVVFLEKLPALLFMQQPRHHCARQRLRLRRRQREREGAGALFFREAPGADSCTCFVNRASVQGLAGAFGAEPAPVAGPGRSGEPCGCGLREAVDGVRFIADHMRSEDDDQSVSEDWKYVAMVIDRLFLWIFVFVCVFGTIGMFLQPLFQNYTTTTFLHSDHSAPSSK
Sequence of N neuronal α7 (h) (P36544 23-502): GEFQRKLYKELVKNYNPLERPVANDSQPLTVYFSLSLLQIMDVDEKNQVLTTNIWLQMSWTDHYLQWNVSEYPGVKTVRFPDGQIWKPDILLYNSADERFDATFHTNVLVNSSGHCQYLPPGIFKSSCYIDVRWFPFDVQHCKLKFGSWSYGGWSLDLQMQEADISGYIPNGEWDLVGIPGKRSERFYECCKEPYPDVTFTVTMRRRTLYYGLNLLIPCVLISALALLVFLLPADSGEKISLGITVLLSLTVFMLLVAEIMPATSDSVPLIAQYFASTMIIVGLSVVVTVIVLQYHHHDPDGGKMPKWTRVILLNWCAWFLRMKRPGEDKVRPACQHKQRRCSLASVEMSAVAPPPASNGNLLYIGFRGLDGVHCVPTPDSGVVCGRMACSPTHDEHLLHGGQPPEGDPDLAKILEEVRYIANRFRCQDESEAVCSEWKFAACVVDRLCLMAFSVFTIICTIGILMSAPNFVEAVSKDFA
Sequence of Dopamine transporter (h) (Q01959 whole entry): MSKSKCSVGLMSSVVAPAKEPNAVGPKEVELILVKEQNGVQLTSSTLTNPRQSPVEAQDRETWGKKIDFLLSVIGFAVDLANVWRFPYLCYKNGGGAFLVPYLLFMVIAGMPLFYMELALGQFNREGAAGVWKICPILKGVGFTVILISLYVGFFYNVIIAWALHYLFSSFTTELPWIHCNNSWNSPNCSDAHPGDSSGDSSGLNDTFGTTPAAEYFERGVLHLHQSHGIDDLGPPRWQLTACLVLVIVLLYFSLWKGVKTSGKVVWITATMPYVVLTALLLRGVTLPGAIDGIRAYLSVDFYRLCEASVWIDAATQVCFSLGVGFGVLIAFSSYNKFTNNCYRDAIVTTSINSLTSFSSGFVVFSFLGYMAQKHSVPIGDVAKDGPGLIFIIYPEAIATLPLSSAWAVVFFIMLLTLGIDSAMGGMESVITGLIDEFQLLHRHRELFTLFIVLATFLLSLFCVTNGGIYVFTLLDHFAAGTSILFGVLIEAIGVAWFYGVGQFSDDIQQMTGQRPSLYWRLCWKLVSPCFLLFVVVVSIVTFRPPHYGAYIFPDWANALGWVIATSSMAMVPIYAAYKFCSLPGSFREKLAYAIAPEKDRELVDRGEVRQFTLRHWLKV
Sequence of δ2 (DOP) (h) (P41143 whole entry): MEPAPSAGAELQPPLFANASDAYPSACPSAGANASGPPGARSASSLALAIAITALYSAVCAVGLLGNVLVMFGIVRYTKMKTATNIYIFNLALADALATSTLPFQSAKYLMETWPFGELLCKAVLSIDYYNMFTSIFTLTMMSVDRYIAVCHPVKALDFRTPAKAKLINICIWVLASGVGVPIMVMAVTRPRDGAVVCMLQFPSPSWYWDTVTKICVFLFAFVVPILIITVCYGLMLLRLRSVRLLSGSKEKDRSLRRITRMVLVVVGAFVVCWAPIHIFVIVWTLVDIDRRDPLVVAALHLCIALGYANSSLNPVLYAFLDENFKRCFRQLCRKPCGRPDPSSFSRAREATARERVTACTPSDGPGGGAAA

O=C(O)[C@H]1O[C@@H](Oc2ccc3c4c2O[C@H]2[C@@H](O)CC[C@@]5(O)[C@@H](C3)N(CC3CCC3)CC[C@]425)[C@H](O)[C@@H](O)[C@@H]1O [Compound M5, nalbuphine-3-beta-D-glucuronid]
% Inhibition of Control Specific Binding 1st (α2C (h)): 12.1%
% Inhibition of Control Specific Binding 2nd (α2C (h)): 6.5%
% Inhibition of Control Specific Binding Mean (α2C (h)): 9.3%
% Inhibition of Control Specific Binding 1st (5-HT2B (h)): −3.4%
% Inhibition of Control Specific Binding 2nd (5-HT2B (h)): 3.9%
% Inhibition of Control Specific Binding Mean (5-HT2B (h)): 0.2%
% Inhibition of Control Specific Binding 1st (M4 (h)): −7.9%
% Inhibition of Control Specific Binding 2nd (M4 (h)): 16.6%
% Inhibition of Control Specific Binding Mean (M4 (h)): 4.4%
% Inhibition of Control Specific Binding 1st (Dopamine transporter (h)): −2.0%
% Inhibition of Control Specific Binding 2nd (Dopamine transporter (h)): 12.1%
% Inhibition of Control Specific Binding Mean (Dopamine transporter (h)): 5.1%
% Inhibition of Control Specific Binding 1st (5-HT2c (h)): −7.9%
% Inhibition of Control Specific Binding 2nd (5-HT2c (h)): −8.2%
% Inhibition of Control Specific Binding Mean (5-HT2c (h)): −8.0%
% Inhibition of Control Specific Binding 1st (Na^+ channel (site 2)): −2.1%
% Inhibition of Control Specific Binding 2nd (Na^+ channel (site 2)): 24.8%
% Inhibition of Control Specific Binding Mean (Na^+ channel (site 2)): 11.4%
% Inhibition of Control Specific Binding 1st (N neuronal α4β2 (h)): 0.8%
% Inhibition of Control Specific Binding 2nd (N neuronal α4β2 (h)): −2.0%
% Inhibition of Control Specific Binding Mean (N neuronal α4β2 (h)): −0.6%
% Inhibition of Control Specific Binding 1st (5-HT1A (h)): −7.0%
% Inhibition of Control Specific Binding 2nd (5-HT1A (h)): 3.4%
% Inhibition of Control Specific Binding Mean (5-HT1A (h)): −1.8%
% Inhibition of Control Specific Binding 1st (δ2 (DOP) (h)): 13.9%
% Inhibition of Control Specific Binding 2nd (δ2 (DOP) (h)): 18.2%
% Inhibition of Control Specific Binding 1st (BZD (central)): −13.2%
% Inhibition of Control Specific Binding Mean (BZD (central)): −5.6%
% Inhibition of Control Specific Binding 1st (N neuronal α7 (h)): −6.0%
% Inhibition of Control Specific Binding 2nd (N neuronal α7 (h)): −0.4%
% Inhibition of Control Specific Binding Mean (N neuronal α7 (h)): −3.2%
